Where a name gives a salt, the structure may show the parent alone. Values belong to the molecule of their own block, whether it stands above or below them.
Key:
[1] = Antiproliferative activity against human ROSA KIT WT cells; assay type: toxicity, cell-based
[2] = molecular target: ALK tyrosine kinase receptor (Homo sapiens, UniProt Q9UM73); test: Inhibition of ALK (unknown origin)
KARPAS-299 = test: cells; conditions: Homo sapiens, KARPAS-299, 72 h
Description: Antiproliferative activity against human KARPAS-299 cells assessed as inhibition of cell growth incubated for 72 hrs by celltiter-glo assay

[3] = Anticancer activity against human ME-1 cells; assay type: functional, cell-based
[4] = molecular target: Phosphatidylinositol 4,5-bisphosphate 3-kinase catalytic subunit gamma isoform (Homo sapiens, UniProt P48736); test: Inhibition of PI3Kgamma (unknown origin)
NCI-H358 = test: Antiproliferative activity against human NCI-H358 cells assessed as reduction in cell viability; assay type: functional, cell-based
MIA PaCa-2 = test: Antiproliferative activity against human MIA PaCa-2 cells assessed as reduction in cell viability; assay type: functional, cell-based
[5] = Inhibition of BTK C481T mutant (unknown origin); design: species or system Homo sapiens
[6] = molecular target: Tyrosine-protein kinase BTK (Homo sapiens, UniProt Q06187)
Description: Inhibition of wild type BTK in human CLL cells assessed as

RPMI-8226 = test: Anticancer activity against human RPMI-8226 cells assessed as reduction in cell growth; assay type: functional, cell-based
U-266 = test: Antiproliferative activity against human U266B1 cells assessed as reduction in cell viability; assay type: functional, cell-based

Phosphatidylinositol 4,5-bisphosphate 3-kinase catalytic subunit gamma isoform, sequence (P48736 whole entry, canonical isoform): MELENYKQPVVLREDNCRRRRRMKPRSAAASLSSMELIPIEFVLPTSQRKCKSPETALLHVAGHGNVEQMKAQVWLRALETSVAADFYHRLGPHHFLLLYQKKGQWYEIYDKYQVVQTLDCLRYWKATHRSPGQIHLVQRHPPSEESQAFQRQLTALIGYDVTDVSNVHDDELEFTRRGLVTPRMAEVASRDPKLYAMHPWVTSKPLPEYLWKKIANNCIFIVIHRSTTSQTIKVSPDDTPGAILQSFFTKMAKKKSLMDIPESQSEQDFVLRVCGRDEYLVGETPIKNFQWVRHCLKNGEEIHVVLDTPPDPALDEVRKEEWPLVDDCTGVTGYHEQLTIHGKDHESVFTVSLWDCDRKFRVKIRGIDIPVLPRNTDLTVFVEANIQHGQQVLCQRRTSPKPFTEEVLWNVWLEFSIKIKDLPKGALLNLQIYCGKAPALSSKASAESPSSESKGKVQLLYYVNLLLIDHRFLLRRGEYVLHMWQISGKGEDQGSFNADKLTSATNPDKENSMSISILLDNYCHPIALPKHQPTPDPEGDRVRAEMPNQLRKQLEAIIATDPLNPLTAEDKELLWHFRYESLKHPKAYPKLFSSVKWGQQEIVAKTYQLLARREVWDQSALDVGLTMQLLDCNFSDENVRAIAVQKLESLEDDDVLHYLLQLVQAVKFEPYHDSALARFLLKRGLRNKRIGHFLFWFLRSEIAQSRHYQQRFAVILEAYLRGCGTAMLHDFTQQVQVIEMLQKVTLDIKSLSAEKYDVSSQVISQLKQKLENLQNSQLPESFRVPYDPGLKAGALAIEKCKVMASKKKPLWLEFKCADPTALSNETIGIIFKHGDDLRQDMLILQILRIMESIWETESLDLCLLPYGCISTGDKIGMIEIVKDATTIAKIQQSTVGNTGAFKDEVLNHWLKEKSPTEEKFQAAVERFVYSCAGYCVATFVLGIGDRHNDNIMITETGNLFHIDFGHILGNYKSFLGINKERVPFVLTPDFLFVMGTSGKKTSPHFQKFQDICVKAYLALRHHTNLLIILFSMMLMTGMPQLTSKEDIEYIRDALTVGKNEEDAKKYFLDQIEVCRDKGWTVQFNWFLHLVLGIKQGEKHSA
Tyrosine-protein kinase BTK, sequence (Q06187 whole entry): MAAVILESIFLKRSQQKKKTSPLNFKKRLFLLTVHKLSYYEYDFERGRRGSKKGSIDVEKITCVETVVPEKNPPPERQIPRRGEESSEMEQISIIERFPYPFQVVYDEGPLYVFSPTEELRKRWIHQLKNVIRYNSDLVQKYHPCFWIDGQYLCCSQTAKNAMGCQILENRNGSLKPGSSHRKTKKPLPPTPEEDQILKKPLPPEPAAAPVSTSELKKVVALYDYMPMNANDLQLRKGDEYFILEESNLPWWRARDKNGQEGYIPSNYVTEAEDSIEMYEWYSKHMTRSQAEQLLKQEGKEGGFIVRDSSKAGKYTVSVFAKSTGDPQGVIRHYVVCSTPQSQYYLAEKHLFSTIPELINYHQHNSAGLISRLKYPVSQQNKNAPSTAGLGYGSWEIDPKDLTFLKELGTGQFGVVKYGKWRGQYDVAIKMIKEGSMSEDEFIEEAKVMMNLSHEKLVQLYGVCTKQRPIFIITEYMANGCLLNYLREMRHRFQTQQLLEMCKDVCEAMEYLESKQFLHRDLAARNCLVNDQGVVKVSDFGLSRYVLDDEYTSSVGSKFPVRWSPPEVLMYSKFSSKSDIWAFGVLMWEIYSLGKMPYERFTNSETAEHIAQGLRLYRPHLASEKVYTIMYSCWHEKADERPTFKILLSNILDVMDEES
ALK tyrosine kinase receptor, sequence (Q9UM73 whole entry): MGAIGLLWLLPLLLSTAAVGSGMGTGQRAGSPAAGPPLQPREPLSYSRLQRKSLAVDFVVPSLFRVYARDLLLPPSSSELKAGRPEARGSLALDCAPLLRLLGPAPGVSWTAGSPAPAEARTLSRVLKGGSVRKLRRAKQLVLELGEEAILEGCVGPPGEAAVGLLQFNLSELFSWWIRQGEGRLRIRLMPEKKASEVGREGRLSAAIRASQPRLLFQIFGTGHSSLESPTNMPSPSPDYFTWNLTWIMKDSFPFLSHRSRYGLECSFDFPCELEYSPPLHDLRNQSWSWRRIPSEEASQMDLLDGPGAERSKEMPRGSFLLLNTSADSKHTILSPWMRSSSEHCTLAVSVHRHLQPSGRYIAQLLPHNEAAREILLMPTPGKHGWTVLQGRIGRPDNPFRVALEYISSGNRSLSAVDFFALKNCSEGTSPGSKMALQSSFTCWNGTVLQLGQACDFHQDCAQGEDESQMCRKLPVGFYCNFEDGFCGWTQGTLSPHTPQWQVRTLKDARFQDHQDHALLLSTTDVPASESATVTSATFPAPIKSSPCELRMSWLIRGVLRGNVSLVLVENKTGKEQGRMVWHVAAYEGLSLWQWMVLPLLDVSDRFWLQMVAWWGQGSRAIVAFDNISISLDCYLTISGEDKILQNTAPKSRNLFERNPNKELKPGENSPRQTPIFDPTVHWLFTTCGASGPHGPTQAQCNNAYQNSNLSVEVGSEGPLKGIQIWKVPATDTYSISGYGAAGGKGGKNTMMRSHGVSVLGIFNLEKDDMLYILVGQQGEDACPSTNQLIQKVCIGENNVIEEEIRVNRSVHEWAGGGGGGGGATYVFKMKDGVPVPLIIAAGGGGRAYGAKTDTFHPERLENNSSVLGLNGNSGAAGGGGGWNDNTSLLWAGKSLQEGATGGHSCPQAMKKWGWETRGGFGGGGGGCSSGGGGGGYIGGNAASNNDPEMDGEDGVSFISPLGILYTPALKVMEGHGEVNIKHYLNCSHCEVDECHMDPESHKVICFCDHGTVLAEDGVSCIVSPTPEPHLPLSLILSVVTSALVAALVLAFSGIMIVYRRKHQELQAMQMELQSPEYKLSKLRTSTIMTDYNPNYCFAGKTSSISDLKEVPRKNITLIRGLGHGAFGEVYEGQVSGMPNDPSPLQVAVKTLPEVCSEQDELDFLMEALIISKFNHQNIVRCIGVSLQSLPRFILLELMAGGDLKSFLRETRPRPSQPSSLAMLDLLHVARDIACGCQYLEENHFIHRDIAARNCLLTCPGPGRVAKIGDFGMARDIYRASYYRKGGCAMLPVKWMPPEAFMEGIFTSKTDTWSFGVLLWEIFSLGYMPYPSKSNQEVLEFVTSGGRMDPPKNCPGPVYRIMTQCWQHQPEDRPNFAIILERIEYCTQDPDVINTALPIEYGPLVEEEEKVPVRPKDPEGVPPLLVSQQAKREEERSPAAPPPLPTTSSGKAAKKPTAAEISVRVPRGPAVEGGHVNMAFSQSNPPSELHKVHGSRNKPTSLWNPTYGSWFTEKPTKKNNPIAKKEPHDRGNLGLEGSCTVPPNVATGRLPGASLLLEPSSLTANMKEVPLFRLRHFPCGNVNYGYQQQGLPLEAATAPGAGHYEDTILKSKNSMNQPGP

SMILES: CCn1c(=O)c(-c2cc(NC(=O)Nc3ccccc3)c(F)cc2Br)cc2cnc(NC)cc21 [RIPRETINIB]
IC50 [1]: 34 nM

SMILES: CN1CCN(c2ccc(C(=O)Nc3n[nH]c4ccc(Cc5ccccc5)cc34)c(NC3CCOCC3)c2)CC1
IC50 [2]: 100 nM
IC50 (KARPAS-299): 180 nM

SMILES: CN1CCN(c2ccc(C(=O)Nc3n[nH]c4ccc(Cc5cccc(F)c5)cc34)c(NC3CCOCC3)c2)CC1
IC50 (KARPAS-299): 10 nM

SMILES: CCOC(=O)[C@H](Cc1ccc(F)cc1)NC(=O)[C@@H](N)Cc1ccc(N(CCCl)CCCl)cc1 [MELPHALAN FLUFENAMIDE HYDROCHLORIDE]
IC50 (RPMI-8226): 4 nM
IC50 (U-266): 6 nM

The remaining lines, values ahead:

IC50 [3]: 34 nM
SMILES: O=C(/C=C\n1cnc(-c2cc(C(F)(F)F)cc(C(F)(F)F)c2)n1)NNc1cnccn1 [SELINEXOR]

IC50 [4]: 2.23 nM
SMILES: CCC(=O)N1CC[C@H](Nc2ncnc3c2CN(c2cnc(OC)c(C(F)(F)F)c2)CC3)C1 [LENIOLISIB]

IC50 (NCI-H358): 6 nM
IC50 (MIA PaCa-2): 9 nM
SMILES: C=CC(=O)N1CCN(c2nc(=O)n(-c3c(C)ccnc3C(C)C)c3nc(-c4c(O)cccc4F)c(F)cc23)[C@@H](C)C1 [SOTORASIB]

IC50 [5]: 7.23 nM
IC50 [6]: 3.68 nM
SMILES: COc1ccc(F)cc1C(=O)NCc1ccc(-c2nn([C@@H](C)C(F)(F)F)c(N)c2C(N)=O)cc1 [PIRTOBRUTINIB]
